# Reference: patent publication US11020352B2, “Systems and methods for the fabrication of tablets, including pharmaceutical tablets” (Massachusetts Institute of Technology, priority 2017, dated 2021)
# What was measured:
# [1] = Particle size of API and excipients; type: physicochemical; conditions: API/excipient powder
# Text: Microscopy images showing the morphology of IBU and DIZ particles are shown in FIGS. 29A and 29B, respectively. IBU and DIZ both are fine particles with a d50 of 21.87 μm and 23.12 μm, respectively.
# [2] = Bulk and flow properties of powders (FT4 Powder Rheometer); type: physicochemical; conditions: API/excipient powder
Compound,Particle size d10 [1],Particle size d50 [1],Particle size d90 [1],Bulk density [2],Compressibility [2],Flow function coefficient (ffc) [2]
OC[C@H]1O[C@@H](O[C@H]2[C@H](O)[C@@H](O)C(O)O[C@@H]2CO)[C@H](O)[C@@H](O)[C@H]1O (some centres unmarked) [Anhydrous lactose],26.03 μm,188.75 μm,425.90 μm,0.74 g/mL,13.10%,5.69
"CN1C(=O)CN=C(c2ccccc2)c2cc(Cl)ccc21 [Diazepam (DIZ), Diazepam, reference compound]",5.74 μm,23.12 μm,110.75 μm,–,32.73%,2.78
"CC(C)Cc1ccc(C(C)C(=O)O)cc1 (centres unmarked) [Ibuprofen (IBU), Ibuprofen, reference compound]",4.86 μm,21.87 μm,75.31 μm,0.53 g/mL,25.07%,3.87
Magnesium stearate,2.76 μm,6.86 μm,15.10 μm,0.31 g/mL,38.97%,5.18
